Reference: publication PMC11546339, “Conformational Plasticity Enhances the Brain Penetration of a Metabolically Stable, Dual-Functional Opioid-Peptide CycloAnt” (International Journal of Molecular Sciences, 2024)
Where a SMILES comes first, the peptide text is derived from it. Bridges are numbered along the chain shown (N, C = ends). [ ]: non-standard residue; d: D form. 2Abz = Nc1ccccc1C(=O)O; Dap = NC[C@H](N)C(=O)O

Tests used:
mouse DOR = molecular target: T1, mouse DOR (Mus musculus, UniProt P32300); assay: Opioid receptor radioligand binding assay ([3H]diprenorphine), DOR; settings: CHO cell membranes, read-out: binding affinity (Ki) at DOR
T1 construct: expressed in transfected cells
T1 sequence (P32300 whole entry): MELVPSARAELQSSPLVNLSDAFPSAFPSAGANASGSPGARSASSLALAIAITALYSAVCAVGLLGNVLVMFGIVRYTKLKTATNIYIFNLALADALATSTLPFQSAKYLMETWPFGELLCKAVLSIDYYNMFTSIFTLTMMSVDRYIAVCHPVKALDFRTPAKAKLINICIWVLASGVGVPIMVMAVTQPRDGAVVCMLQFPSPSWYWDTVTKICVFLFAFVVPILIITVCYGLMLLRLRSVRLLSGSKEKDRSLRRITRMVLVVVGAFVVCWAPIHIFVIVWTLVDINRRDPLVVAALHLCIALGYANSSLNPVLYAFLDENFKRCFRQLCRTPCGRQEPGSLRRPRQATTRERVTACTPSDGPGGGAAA
Procedure: (§1) CycloAnt is a lariat peptide that acts in vivo as a bifunctional MOR agonist and DOR antagonist, which was confirmed in our previous study using opioid receptor individually knock-out (OP KO) mice. In the current study, the binding affinities of CycloAnt to the three opioid receptors are determined using cell-based radioligand opioid receptor binding assays. […] At the KOR, CycloAnt at 1 μM inhibits 6% and at 10 μM inhibits 26% of [^3H]diprenorphine binding.
(§2) Opioid receptor radioligand binding assay. Membranes of CHO cells stably expressing the rat MOR, mouse DOR, or human KOR were used in the experiments. [^3H]diprenorphine (PerkinElmer, Waltham, MA, at the time of experiment calculated to have specific activity 35 Ci/mmol) was used as the radioligand for the MOR, DOR, and KOR. Competition inhibition of [^3H]diprenorphine (0.3–0.4 nM) binding to the MOR or DOR was conducted in 50 mM Tris-HCl buffer (pH 7.4) with an adequate number of cell membranes for each receptor and […] of CycloAnt. […] Binding reactions were terminated by rapid filtration under vacuum over GF/B filters presoaked in 0.1% polyethyleneimine, and the bound radioactivity was counted by liquid scintillation counting. […] Binding data were analyzed using GraphPad Prism software (version 10.2.3) and IC50 values (the concentration necessary to inhibit 50 percent of radioligand binding) and Ki values were calculated. […]

rat MOR = molecular target: T2, rat MOR (Rattus norvegicus, UniProt P33535); assay: Opioid receptor radioligand binding assay ([3H]diprenorphine), MOR; settings: CHO cell membranes, read-out: binding affinity (Ki) at MOR
T2 construct: expressed in transfected cells
T2 sequence (P33535 whole entry): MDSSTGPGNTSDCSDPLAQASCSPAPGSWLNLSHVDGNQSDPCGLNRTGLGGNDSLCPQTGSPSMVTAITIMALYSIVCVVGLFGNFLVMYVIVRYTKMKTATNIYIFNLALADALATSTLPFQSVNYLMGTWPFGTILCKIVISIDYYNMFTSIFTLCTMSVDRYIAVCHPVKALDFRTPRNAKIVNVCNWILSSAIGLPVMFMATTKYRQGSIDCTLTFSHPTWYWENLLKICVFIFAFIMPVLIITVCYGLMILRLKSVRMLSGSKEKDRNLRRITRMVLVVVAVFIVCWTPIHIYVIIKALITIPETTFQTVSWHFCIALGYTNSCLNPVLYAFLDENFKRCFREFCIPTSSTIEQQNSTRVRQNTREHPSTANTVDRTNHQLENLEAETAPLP
Procedure: as §1, §2

[1] = Metabolism by CYP450 in mouse liver microsomes (NADPH); assay type: in vitro ADME; settings: 3.07 μM, 0.5 mg/mL microsomes, 1 mM NADPH, 37 °C, 120 min
Procedure: The metabolic stability of CycloAnt was then evaluated in mouse liver microsomes. CycloAnt at a final concentration of 3.07 μM was mixed with 0.5 mg/mL liver microsomes in the presence of 1 mM of NADPH and incubated at 37 °C for 2 h. At 0, 5, 15, 30, 60, and 120 min, incubation mixtures were withdrawn and processed. The supernatant was analyzed by LC-MS/MS. The percentage of CycloAnt remaining at each time point was calculated (Figure 3a).
Metabolism by CYP450 in liver microsomes. CycloAnt dissolved in pH 7.2 PBS was diluted to 8 μM. Six hundred microliters of CycloAnt were incubated with 800 μL of 0.975 mg/mL mouse liver microsomes and 160 μL of 10 mM NADPH at 37 °C for 0, 5, 15, 30, 60, and 120 min. The final concentrations of CycloAnt, mouse liver microsomes, and NADPH in the incubation mixture were 3.07 μM, 0.5 mg/mL, and 1 mM, respectively. At the designated time points, 100 μL of the incubation mixture were withdrawn and mixed with 200 μL ice-cold acetonitrile containing internal standard (IS, Tyr-[D-Lys-Phe-Tyr-Gly]), followed by centrifugation at 10,000× g at 4 °C for 10 min. An aliquot of 250 μL of supernatant was collected and dried in vacuum. The dried sample was reconstituted in 100 μL of 20% acetonitrile and stored at −20 °C before analyzed by LC-MS/MS on the next day. The experiment was performed in duplicate.

human KOR = molecular target: T3, human KOR (Homo sapiens, UniProt P41145); assay: Opioid receptor radioligand binding assay ([3H]diprenorphine), KOR
T3 construct: expressed in transfected cells
T3 sequence (P41145 whole entry): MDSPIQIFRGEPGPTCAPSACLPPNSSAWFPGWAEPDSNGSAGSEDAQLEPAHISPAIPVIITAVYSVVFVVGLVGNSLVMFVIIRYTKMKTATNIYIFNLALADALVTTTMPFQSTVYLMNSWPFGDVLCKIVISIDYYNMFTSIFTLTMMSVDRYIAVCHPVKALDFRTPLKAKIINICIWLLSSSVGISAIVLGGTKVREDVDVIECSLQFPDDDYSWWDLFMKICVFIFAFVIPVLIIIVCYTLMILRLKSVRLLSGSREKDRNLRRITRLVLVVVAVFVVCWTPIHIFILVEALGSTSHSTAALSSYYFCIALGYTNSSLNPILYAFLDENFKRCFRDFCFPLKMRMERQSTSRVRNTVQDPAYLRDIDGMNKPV
Procedure: as §1, §2

C[C@@H](O)[C@@H]1NC(=O)[C@H](CNC(=O)c2ccccc2N)NC(=O)[C@H](NC(=O)[C@@H](N)Cc2ccc(O)cc2)CCCCNC(=O)CNC1=O [CycloAnt] (H-Y[dK][Dap](2Abz)TG; lactam 2-C)
Ki (mouse DOR): 7.85 ± 0.77 nM | Ki (rat MOR): 2.25 ± 0.44 nM | stability in mouse liver microsomes with NADPH (CYP450) [1]: no significant concentration change | inhibition at 1 µM (human KOR; CycloAnt at 1 μM): 6% | inhibition at 10 µM (human KOR; CycloAnt at 10 μM): 26%
